# In patent US20250057951A1, “DISCERNIBLE CELL SURFACE PROTEIN VARIANTS OF CD117 FOR USE IN CELL THERAPY” (UNIVERSITÄT BASEL, priority 2021, published 2025):
# Assays:
# [1] = system: CD117+ myeloid cells; test: Depletion experiment in NSG mice with E73K gene-edited HSPCs; format: in vivo; conditions: in the presence of isotype control antibody
# Experimental: In another experiment, NSG mice (Jackson Laboratories) were sub-lethally irradiated one day before injection with 1 Mio gene-edited HSPCs carrying a E73K variant of CD117. 8, 10, 12 and 14 days after cell injection mice received 25 mg/kg antibody Refmab #1-Bert or 25 mg/kg isotope control antibody i.v. per dose. 16 weeks later the mice were euthanized, and blood, spleen and bone marrow were analyzed by FACS.
# CD117+ myeloid cells were identified by FACS as live/hCD45+/CD33+/CD117+. […] Clone 104D2 was used as an expression control. Cells were classified as not edited (104D2+ and SR-1+) or E73K edited (104D2+ but SR-1−) based on double staining with anti-CD117 clone SR-1 and anti-CD117 clone 104D2.
# [2] = system: antibody Refmab #1; test: Octet screen: binding of CD117 D1-2-3 variants to captured Refmab #1; conditions: nm shift at end of association, top analyte concentration (500 nM)
# Summary of the method: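 Refmab #1 captured on anti-human Fc biosensors; human CD117 D1-2-3 wt or variants flowed as analyte at 500, 50 and 5 nM, 25° C., 300 s association/900 s dissociation, buffer-referenced. Binding level at top concentration, end of association, expressed as percent of wild type; 1:1 fits where possible.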
# [3] = system: TF-1 cells; test: SCF-dependent phosphorylation of CD117 variants in TF-1 cells (Tyr719 ELISA); format: cell-based, human; conditions: 1-20 ng/ml SCF for 5 minutes
# Experimental: TF-1 cells (wild type, knock out, and variants E73K, D121K and S123K of CD117) were seeded at a concentration of 1 million cells/ml in 2 ml of Medium (RPMI1640 supplemented with GlutaMAX+10% heat inactivated FBS) in a 6-well plate. Cells were treated with 1-20 ng/ml recombinant human SCF (1 mg/ml PeproGMP Recombinant Human SCF) for 5 minutes, before cell collection. Cells were washed with ice-cold PBS, before resuspending cells in 500 μL Lysis Buffer (Lysis buffer from Signaling containing Protease Inhibitor and Phosphatase Inhibitor). Cells were flash frozen in liquid nitrogen and thawed at 37° C. twice, before freezing them at −80° C. until further usage. Undiluted samples were thawed and processed according to the manufacturers protocol for the PathScan Phospho-c-Kit (Tyr719) Sandwich ELISA Kit (Cell Signaling). Absorbance (OD_450 nm) was assessed using the Envision (Perkin Elmer).
# [4] = system: TF-1 cells; test: SCF-dependent proliferation of TF-1 cells with CD117 knock-in (CellTiter-Glo); format: cell-based, human; conditions: 100 ng/ml SCF; 3 days; knock-in TF-1 cells
# Experimental: (§1) SCF-dependent proliferation is another function of CD117. SCF-dependent proliferation was measured as follows: TF-1 cells were seeded at a cell concentration of 150 000 cells/ml in sterile, white cell culture treated plates in RPMI Media+10% FCS. Cells were treated with 100 ng/ml of SCF and a titration of various CD117 antibodies or an isotype control antibody at different concentrations. After 3 days of incubation a CellTiter-Glo 2.0 assay (Promega) was performed and luminescence was read in a luminometer (e.g. Envision or Phera Star plate readers).
# (§2) CD117 wild-type TF-1 cells were compared to TF1 cells with a E73K knock in. […] Both KI1 and KI2 were obtained upon sorting the edited TF1 cells using the SONY MA900, removing any wild-type and knock out cells from the final subsets, thus yielding high purity of knock in.
# [5] = system: TF-1 cells; test: SCF-dependent proliferation, SCF titration on TF-1 cells with CD117 variants (CellTiter-Glo); format: cell-based, human; conditions: titration of SCF; 3 days; TF-1 cells with the CD117 variant
# Summary of the method: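 TF-1 cells expressing wildtype or variant CD117 seeded at 150 000 cells/ml in RPMI+GlutaMax+10% FCS and titrated with SCF. Viability read by CellTiter-Glo 2.0 luminescence after 3 days; EC50 determined from two experiments, each in triplicate.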
# [6] = target: antibody Refmab #1; test: Octet titration, steady state KD of CD117 D1-2-3 variants to Refmab #1; format: binding
# Experimental: To further characterize binding of Refmab #1 to CD117 D1-2-3 variants E73K, E73L, E73R, E73Y, D121H, D121K, S123K and S123F, the analytes were titrated at 7 different concentrations (from 2000 nM to 5 nM). Antibody Refmab #1 was captured by AHC biosensors for 300 s at 0.5 to 1 μg/mL. Association and dissociation to Refmab #1 was extended to 600 s and 1000 s, respectively. Steady state analysis was performed.
# [7] = system: Refmab #1; test: Refmab #1 titration on engineered TF-1 cells (flow cytometry); format: binding; conditions: 5-0.00015 μg/mL antibody; 4° C.
# Experimental: Binding of Refmab #1 was assessed in a flow cytometry assay. TF-1 cells were seeded at a cell concentration of 1,000,000 cells/ml in FACS Buffer (PBS+2% FCS+1 mM EDTA). After a Fc blocking using 1:20 diluted TruStain (BioLegend, #422302) in FACS buffer for 15 minutes at 4° C., cells were washed twice with FACS buffer. Subsequently, a SR-1 titration was added to the cells using 5-0.00015 μg/mL antibody for 30 minutes at 4° C. on a plate shaker. Cells were washed twice with FACS buffer and a secondary labelled antibody (IgG (H+L) Cross-Adsorbed Goat anti-Human, Alexa Fluor® 488, Invitrogen, A11013) was added to the cells for 30 minutes at 4° C. on a plate shaker. Cells were washed twice with FACS buffer, before adding 1:100 diluted solution of 7AAD staining (cell viability) in FACS buffer for a couple of minutes and analyzing the cells using the Novocyte Quanteon (Agilent).
# [8] = system: variants of CD117; test: Blocking of SCF-induced CD117 phosphorylation (Tyr719 ELISA), TF-1 cells with CD117 variants; format: cell-based, human; conditions: 0.5 ug/mL antibody or 500 nM avapritinib; 100 ng/ml SCF 5 minutes
# Experimental: (§3) SCF-dependent phosphorylation is another function of CD117. SCF-dependent phosphorylation was measured using TF-1 cells expressing CD117 (as shown in previous experiments). TF-1 cells were seeded at a concentration of 1 million cells/ml in 1 ml of Medium (RPMI1640 supplemented with GlutaMAX+10% heat inactivated FBS) in a 6-well plate. Cells were treated with 0.5 ug/mL antibody or 500 nM avapratinib. Cells were then treated with 100 ng/ml recombinant human SCF (1 mg/ml PeproGMP® Recombinant Human SCF) for 5 minutes, before cell collection. Cells were washed with ice-cold PBS, before resuspending cells in 250 μL Lysis Buffer (Lysis buffer from Signaling containing Protease Inhibitor and Phosphatase Inhibitor). Cells were flash frozen in liquid nitrogen and thawed at 37° C. twice, before freezing them at −80° C. until further usage. Undiluted samples were thawed and processed according to the manufacturers protocol for the PathScan® Phospho-c-Kit (Tyr719) Sandwich ELISA Kit (Cell Signaling). Absorbance (OD_450 nm) was assessed using the Envision (Perkin Elmer).
# (§4) TF-1 cells (wild type, and variants E73K, E73Y, D121K, S123F and S123K of CD117) were seeded at a concentration of 1 million cells/mL in 2 ml of Medium (RPMI1640 supplemented with GlutaMAX+10% heat inactivated FBS) in a 6-well plate. Cells were pre-treated with 0.5 μg/ml of antibodies Refmab #1-Ernie or Refmab #1-Bert for 30 minutes, before adding 100 ng/ml recombinant human SCF (1 mg/mL PeproGMP® Recombinant Human SCF) for 5 minutes. Cells were collected, washed once with ice-cold PBS and resuspended in 500 μL Lysis Buffer (Lysis buffer from Signaling containing Protease Inhibitor and Phosphatase Inhibitor). Cells were then flash frozen in liquid nitrogen and thawed at 37° C. twice, before freezing them at −80° C. until further usage. Undiluted samples were thawed and processed according to the manufacturers protocol for the PathScan Phospho-c-Kit (Tyr719) Sandwich ELISA Kit (Cell Signaling) or the Human c-Kit (CD117) ELISA Kit (Abcam). Absorbance (OD_450 nm) was assessed using the Envision (Perkin Elmer).
# [9] = system: CD117; test: Blocking of SCF-induced CD117 phosphorylation (Tyr719 ELISA), wild type TF-1 cells; format: cell-based, human; conditions: 0.5 ug/mL antibody or 500 nM avapritinib; 100 ng/ml SCF 5 minutes
# Experimental: as §3, §4
# [10] = system: HSPC's; test: Inhibition of SCF-dependent proliferation, HSPCs; format: cell-based, human
# Experimental: For human CD34+ HSCs (different donors) cells are seeded in X-Vivo 20 medium with 100 ng/ml SCF, 50 ng/ml TPO and 50 ng/ml FLT-3 Ligand in sterile white cell culture treated plates at a cell density of 30 000 cells/ml. HSCs are then treated with various CD117 antibodies or an isotype control antibody at different concentrations and plates are incubated for 5 days. After 5 days a CellTiter-Glo 2.0 assay (Promega) is performed and luminescence is read in a luminometer (e.g. Envision or Phera Star plate readers).
# [11] = system: TF-1 cells with knock-ins of CD117 variants; test: Inhibition of SCF-dependent proliferation, TF-1 cells with CD117 variant knock-in; format: cell-based, human; conditions: 100 ng/ml SCF; increasing concentrations; 3 days; E73K; all variants tested; listed as RefMab #1
# Experimental: as §1, §2
# (§5) Next, proliferation of the variants was tested with increasing concentrations of RefMab #1 at a constant concentration of SCF (100 ng/ml). TF-1 cells were seeded at a cell concentration of 150 000 cells/ml in sterile, white cell culture treated plates with transparent bottom in RPMI+GlutaMax+10% FCS and a fix concentration of 100 ng/ml SCF in the media, Cells were treated with different concentrations of RefMab #1. After 3 days of incubation a CellTiter-Glo 2,0 assay (Promega) was performed, luminescence was read in a luminometer (Envision plate reader).
# [12] = system: wild type TF-1 cells; test: Inhibition of SCF-dependent proliferation, wild type TF-1 cells; format: cell-based, human; conditions: for effect on SCF-dependent proliferation of wild type TF-1 cells: 100 ng/ml SCF, increasing concentrations, 3 days
# Experimental: as §1, §5
# [13] = Melting temperature of CD117 variants by differential scanning fluorimetry; format: physicochemical; conditions: Sypro Orange, PBS, 25 to 95° C.
# Experimental: Biophysical properties of the elected variants were tested. Aggregation of the elected CD117 variants was determined by preparative size exclusion chromatography. Yield of the elected CD117 variants was determined by dividing the amount of protein after purification by the production volume. Melting temperature was measured by differential scanning fluorimetry using Sypro Orange (Sigma, PN: S5692-50 ul) and an RT-PCR machine (C1000 Thermal Cycler, Biorad). The samples were measured at 0.25-1.0 mg/ml in PBS buffer in duplicates and Sypro Orange was added at a final concentration of 5×. […] The fluorescent increase was monitored as a function of temperature and the melting temperature was determined as the inflexion point of the sigmoidal curve and compared to wild-type CD117. Results are shown in FIGS. 4 (aggregation), 5 (yield) and 6 (melting temperature).
# [14] = target: T1, Biotinylated Avitag-hSCF (human, UniProt P21583 26-190, limits assumed, biotinylated Avitag); test: BLI (Octet), steady state: biotinylated SCF on streptavidin biosensor, CD117 D1-2-3 variant as analyte; KD relative to WT
# T1 construct: Bought reagent; also called hSCF (Acros Biosystems SCF-H82E1)
# T1 sequence (P21583 26-190 limits assumed): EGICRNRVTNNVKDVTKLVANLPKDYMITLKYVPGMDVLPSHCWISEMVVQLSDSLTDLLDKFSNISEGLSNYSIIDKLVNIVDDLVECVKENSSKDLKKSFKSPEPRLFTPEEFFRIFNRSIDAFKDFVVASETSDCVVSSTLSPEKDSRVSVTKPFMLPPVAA
# Experimental: Domains 4 and 5 were used as a negative, non-binding control.
# Association was monitored for 300 s and dissociation for 600 s. […] Reference subtraction was performed against buffer only wells. Biosensors were not regenerated and a new set of SA biosensors was used for each analyte. Data were analyzed using the Octet Data Analysis software HT 12.0. Steady state data analysis was performed due to the fast on/off nature of the interaction.
molecule,measurement,setting,value
E73K: variant of human CD117 (SEQ ID NO: 1) with substitution E73K,engraftment of edited CD34+ human cells in immune-deficient mice,[1],engraft essentially as well as unedited cells
same,binding to Refmab #1 compared to wild type,[2],strong decrease in binding
same,SCF-dependent phosphorylation at position Tyr719 of CD117,[3],showed a SCF-dependent phosphorylation
same,SCF-dependent proliferation,[4],strongly proliferated
same,EC50 Experiment #1,[5],0.00373 µg/mL
same,EC50 Experiment #2,[5],0.00342 µg/mL
same,Kd,"[6]; 7 concentrations 2000-5 nM, steady state, two individual experiments",1.2 µM
same,change of KD compared to wild type CD117,[6]; KD variant vs wild type,1200 fold
same,Binding of Refmab #1 to TF-1 cells expressing the CD117 variant,[7],completely abolished
"Refmab #1: anti-CD117 antibody, VH SEQ ID 15, VL SEQ ID 16, human IgG1 Fc silent (AEASS); also tested as Fab (antibody, V domains shown, human IgG1 Fc silent (AEASS); Refmab #1 VH; Refmab #1 VL, also tested as Fab) VH: QVQLQQPGAELVKPGASVKMSCKASGYTFTSYNMHWVKQTPGQGLEWIGVIYSGNGDTSYNQKFKGKATLTADKSSSTAYMQINSLTSEDSAVYYCARERDTRFGNWGQGTLVTVSA VL: NIVLTQSPASLAVSLGLRATISCRASESVDIYGNSFMHWYQQKPGQPPKLLIYLASNLESGVPARFSGSGSRTDFTLTIDPVEADDAATYYCQQNNEDPYTFGGGTKLEIK","blocking of SCF-induced phosphorylation, E73K variant",[8],unaffected
same,"blocking of SCF-induced phosphorylation, wild type cells",[9],can be blocked
same,IC50 in SCF-dependent proliferation assay,[10],0.0623 µg/mL
same,effect on SCF-dependent proliferation of TF-1 cells with CD117 variants,[11],not affected
same,effect on SCF-dependent proliferation of wild type TF-1 cells,[12],decrease in proliferation
same,effect on SCF-dependent proliferation of wild type TF-1 cells,[12]; listed as RefMab #1,pronounced effect
same,IC50 in SCF-dependent proliferation assay,[12]; TF-1 cells,0.2760 µg/mL
"V120P (receptor, not in the list MOLECULES; also called human CD117 D1-2-3 variant V120P) extracellular domains 1, 2 and 3: QPSVSPGEPSPPSIHPGKSDLIVRVGDEIRLLCTDPGFVKWTFEILDETNENKQNEWITEKAEATNTGKYTCTNKHGLSNSIYVFVRDPAKLFLPDRSLYGKEDNDTLVRCPLTDPEVTNYSLKGCQGKPLPKDLRFIPDPKAGIMIKSVKRAYHRLCLHCSVDQEGKSVLSEKFILKVRPAFKAVPVVSVSKASYLLREGEEFTVTCTIKDVSSSVYSTWKRENSQTKLQEKYNSWHHGDFNYERQATLTISSARVNDSGVFMCYANNTFGSANVTTTLEVVD",melting temperature,[13],two melting points were measured
same,binding result,[14],binds
